# Key:
# OVCAR-4 tumor cell line = assay: siRNA knockdown and cell viability assay; assay type: cell-based, human
# [1] = system: MDA-MB-231 tumor cell line; assay: siRNA knockdown and cell viability assay; assay type: cell-based, human
smiles,measurement,setting,value
Cn1c(=O)n(-c2ccc(C(C)(C)C#N)cc2)c2c3cc(-c4cnc5ccccc5c4)ccc3ncc21 [NVP-BEZ235],Sensitivity to NVP-BEZ235 (cell viability) upon loss of OGT expression,OVCAR-4 tumor cell line; OGT siRNA + 10 nM NVP-BEZ235,no effect
same,Sensitivity of cell line to NVP-BEZ235,OVCAR-4 tumor cell line; data not shown,highly NVP-BEZ235-resistant
same,Sensitivity to NVP-BEZ235 (cell viability) upon loss of OGT expression,[1]; OGT siRNA + 10 nM NVP-BEZ235,increased sensitivity
same,Sensitivity of cell line to NVP-BEZ235,[1]; data not shown,resistant
